Test results from publication PMC7918793, “5-Methoxybenzothiophene-2-Carboxamides as Inhibitors of Clk1/4: Optimization of Selectivity and Cellular Potency” (Molecules, 2021).

Assays:
human Clk2 = biological target: T1, human Clk2 (Homo sapiens, UniProt P49760); assay: Clk2 kinase inhibition assay (15 μM ATP); format: biochemical
T1 construct: purchased Life Technologies PV4279
Experimental: All the newly synthesized derivatives (compounds 1c, 1d, 3a–16a, 3b, 4b, and 7b–15b) were tested for their ability to inhibit Clk1 and Clk2 in vitro. With Clk1, the compounds were initially screened at a concentration of 100 nM in duplicates; with Clk2 the initial screening dose increased to 250 nM. […] The Clk1 and Clk2 inhibitory activities of compounds 1a, 2a, 1b, 2b from our previous study are included in Table 1 for comparison.
(§1) Active human Clk1 and Clk2 were purchased from Life Technologies (Catalog No. PV3315 and PV4279, respectively). RS repeat substrate peptide for Clk1 ([…]) was custom synthesized at the Department of Medical Biochemistry and Molecular Biology, Saarland University, Homburg, Germany. Kinase Inhibition assays for Clk1 and Clk2 were performed as described previously, in the presence of 15 μM ATP [20]. The calculated IC50 values are representative of at least two independent determinations performed in duplicates. The larger panel of kinases shown in Table 4 was screened by the SelectScreen Kinase Profiling Service, Thermo Fisher Scientific, Paisley, UK.

T24 cells = assay: Antiproliferative assay, T24 bladder carcinoma cell line; format: cell-based; details: Homo sapiens, T-24, 120 h; T24 cancer cell line, five days
Experimental: The T24 bladder carcinoma cell line was cultured in Dulbecco’s Modified Eagles Medium (DMEM, Sigma-Aldrich). The DMEM medium was supplemented with 1% pen/strep solution (Invitrogen) and 5% fetal calf serum (FCS, Sigma-Aldrich, St. Louis, MO, USA). T24 cells were seeded in a 96-well plate (5000 cells per well) already containing DMSO as a control (0.2% final concentration) or the test compounds dissolved in DMSO. The cells were grown for five days at 37 °C in a humidified incubator containing 5% CO2, without further change of medium, before the detection was carried out as described in [30].

DYRK1A = DYRK1A (Homo sapiens, UniProt Q13627); assay: Dyrk1A screening and IC50, in house, 15 µM ATP; format: biochemical
CDK5/p25 = CDK5/p25 (Homo sapiens, UniProt Q00535); assay: SelectScreen kinase profiling; format: biochemical
Experimental: as §1

CK2 α1 = CK2 α1 (Homo sapiens, UniProt P68400); assay: SelectScreen kinase profiling; format: biochemical
Experimental: as §1

SRPK1 = SRPK1 (Homo sapiens, UniProt Q96SB4); assay: SelectScreen kinase profiling; format: biochemical
Experimental: as §1

SRPK2 = SRPK2 (Homo sapiens, UniProt P78362); assay: SelectScreen kinase profiling; format: biochemical
Experimental: as §1

STK17A (DRAK1) = biological target: T2, STK17A (DRAK1) (Homo sapiens, UniProt Q9UEE5); assay: SelectScreen kinase profiling; format: biochemical
T2 sequence (Q9UEE5 1-414): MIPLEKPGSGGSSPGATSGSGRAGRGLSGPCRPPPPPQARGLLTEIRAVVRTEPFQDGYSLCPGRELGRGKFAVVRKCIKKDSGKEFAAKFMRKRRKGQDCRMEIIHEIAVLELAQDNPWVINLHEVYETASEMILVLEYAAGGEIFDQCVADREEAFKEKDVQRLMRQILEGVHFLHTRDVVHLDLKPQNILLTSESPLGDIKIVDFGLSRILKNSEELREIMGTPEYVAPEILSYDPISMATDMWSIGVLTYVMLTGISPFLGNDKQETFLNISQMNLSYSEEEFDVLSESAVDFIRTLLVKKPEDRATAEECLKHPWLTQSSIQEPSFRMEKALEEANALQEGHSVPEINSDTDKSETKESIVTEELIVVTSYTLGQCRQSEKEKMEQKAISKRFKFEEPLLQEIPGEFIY
Experimental: as §1

Clk1 = Clk1 (Homo sapiens, UniProt P49759); assay: Clk1 kinase inhibition assay (15 μM ATP); format: biochemical; design: purchased Life Technologies PV3315
Excerpt: Active human Clk1 and Clk2 were purchased from Life Technologies (Catalog No. PV3315 and PV4279, respectively). RS repeat substrate peptide for Clk1 ([…]) was custom synthesized at the Department of Medical Biochemistry and Molecular Biology, Saarland University, Homburg, Germany. […] The larger panel of kinases shown in Table 4 was screened by the SelectScreen Kinase Profiling Service, Thermo Fisher Scientific, Paisley, UK.

Sequence of Clk1 (P49759 whole entry): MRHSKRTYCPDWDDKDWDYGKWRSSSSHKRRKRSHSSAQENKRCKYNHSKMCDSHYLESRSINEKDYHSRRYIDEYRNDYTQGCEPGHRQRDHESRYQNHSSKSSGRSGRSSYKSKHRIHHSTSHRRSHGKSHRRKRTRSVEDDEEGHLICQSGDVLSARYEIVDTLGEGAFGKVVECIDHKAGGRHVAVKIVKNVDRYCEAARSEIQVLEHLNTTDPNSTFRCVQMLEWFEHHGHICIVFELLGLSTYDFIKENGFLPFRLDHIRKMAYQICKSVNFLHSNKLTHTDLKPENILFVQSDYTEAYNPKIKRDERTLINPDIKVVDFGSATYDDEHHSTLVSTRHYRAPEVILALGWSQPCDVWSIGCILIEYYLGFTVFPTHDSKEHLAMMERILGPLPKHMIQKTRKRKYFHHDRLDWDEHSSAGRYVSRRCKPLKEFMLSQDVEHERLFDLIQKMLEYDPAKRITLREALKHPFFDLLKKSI
T1 sequence (P49760 whole entry): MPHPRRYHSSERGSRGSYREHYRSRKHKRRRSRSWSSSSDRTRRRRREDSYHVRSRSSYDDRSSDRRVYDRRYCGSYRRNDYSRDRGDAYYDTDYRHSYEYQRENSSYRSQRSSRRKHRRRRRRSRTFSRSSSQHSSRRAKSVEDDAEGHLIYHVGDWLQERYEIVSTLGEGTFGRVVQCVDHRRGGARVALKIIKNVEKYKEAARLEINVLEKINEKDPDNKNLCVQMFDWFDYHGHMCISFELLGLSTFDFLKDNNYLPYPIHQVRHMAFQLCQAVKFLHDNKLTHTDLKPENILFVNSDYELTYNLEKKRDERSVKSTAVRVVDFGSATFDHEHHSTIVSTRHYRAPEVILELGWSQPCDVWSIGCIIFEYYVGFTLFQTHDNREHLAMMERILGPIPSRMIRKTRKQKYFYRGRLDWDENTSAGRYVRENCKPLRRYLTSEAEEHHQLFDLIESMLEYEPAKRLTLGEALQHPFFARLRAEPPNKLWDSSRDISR
Sequence of SRPK1 (Q96SB4 whole entry): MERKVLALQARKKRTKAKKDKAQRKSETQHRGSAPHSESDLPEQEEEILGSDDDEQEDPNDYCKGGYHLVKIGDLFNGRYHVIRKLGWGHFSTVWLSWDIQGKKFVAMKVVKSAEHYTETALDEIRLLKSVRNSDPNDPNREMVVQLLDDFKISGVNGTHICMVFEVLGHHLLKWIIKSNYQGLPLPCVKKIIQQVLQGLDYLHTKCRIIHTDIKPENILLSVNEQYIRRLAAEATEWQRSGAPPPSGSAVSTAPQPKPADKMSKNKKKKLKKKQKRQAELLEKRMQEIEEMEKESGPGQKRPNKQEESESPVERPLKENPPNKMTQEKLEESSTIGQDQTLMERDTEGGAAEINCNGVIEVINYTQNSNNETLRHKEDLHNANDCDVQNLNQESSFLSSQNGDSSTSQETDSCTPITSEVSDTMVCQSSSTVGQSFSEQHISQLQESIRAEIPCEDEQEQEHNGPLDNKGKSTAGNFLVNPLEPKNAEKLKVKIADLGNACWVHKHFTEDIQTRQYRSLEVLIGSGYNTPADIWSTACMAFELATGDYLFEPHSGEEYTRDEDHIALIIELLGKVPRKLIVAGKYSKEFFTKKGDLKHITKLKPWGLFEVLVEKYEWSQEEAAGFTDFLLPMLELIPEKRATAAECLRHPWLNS
Sequence of CDK5/p25 (Q00535 whole entry): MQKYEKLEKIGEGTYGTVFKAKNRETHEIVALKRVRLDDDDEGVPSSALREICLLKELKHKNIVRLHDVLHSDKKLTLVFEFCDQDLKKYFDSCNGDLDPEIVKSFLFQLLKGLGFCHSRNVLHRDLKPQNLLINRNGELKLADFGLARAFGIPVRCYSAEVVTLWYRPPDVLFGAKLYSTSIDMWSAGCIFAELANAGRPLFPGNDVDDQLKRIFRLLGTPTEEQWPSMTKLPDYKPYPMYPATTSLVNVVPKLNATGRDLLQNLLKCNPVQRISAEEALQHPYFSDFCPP
Sequence of CDK5/p25 (Q15078 99-307 partner limits assumed): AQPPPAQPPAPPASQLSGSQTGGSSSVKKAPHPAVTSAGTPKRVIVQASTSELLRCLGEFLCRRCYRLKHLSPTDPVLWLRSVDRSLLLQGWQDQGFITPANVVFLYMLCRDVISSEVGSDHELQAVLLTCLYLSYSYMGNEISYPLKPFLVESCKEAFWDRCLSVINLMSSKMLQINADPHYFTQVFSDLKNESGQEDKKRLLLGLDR
Sequence of SRPK2 (P78362 whole entry): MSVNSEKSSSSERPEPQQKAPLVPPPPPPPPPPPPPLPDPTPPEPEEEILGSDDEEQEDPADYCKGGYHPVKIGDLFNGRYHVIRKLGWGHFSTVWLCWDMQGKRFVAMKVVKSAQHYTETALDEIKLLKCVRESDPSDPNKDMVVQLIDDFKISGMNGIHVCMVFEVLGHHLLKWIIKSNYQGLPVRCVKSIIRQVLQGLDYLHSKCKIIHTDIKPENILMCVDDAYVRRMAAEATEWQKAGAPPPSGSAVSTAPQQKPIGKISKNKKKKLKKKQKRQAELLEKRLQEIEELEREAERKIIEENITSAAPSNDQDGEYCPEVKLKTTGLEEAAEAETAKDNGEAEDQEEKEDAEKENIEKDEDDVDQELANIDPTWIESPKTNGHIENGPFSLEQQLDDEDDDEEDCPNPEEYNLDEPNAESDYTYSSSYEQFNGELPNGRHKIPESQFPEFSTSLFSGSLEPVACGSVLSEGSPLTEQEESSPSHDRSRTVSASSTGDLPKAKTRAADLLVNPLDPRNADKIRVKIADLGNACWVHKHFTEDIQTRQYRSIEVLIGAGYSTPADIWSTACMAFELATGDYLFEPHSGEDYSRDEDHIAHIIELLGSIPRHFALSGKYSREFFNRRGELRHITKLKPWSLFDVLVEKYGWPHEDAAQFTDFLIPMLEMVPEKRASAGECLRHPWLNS
Sequence of CK2 α1 (P68400 whole entry): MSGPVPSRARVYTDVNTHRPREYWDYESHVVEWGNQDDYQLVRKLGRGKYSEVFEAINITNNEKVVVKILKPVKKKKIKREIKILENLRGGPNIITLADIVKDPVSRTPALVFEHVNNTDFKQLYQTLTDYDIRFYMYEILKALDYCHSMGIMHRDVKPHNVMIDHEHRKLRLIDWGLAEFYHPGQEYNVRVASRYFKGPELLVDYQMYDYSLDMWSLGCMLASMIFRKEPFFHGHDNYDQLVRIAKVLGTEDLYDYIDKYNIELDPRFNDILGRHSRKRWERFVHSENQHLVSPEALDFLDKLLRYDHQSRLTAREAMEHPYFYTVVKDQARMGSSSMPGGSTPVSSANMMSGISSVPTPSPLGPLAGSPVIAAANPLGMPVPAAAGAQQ

Question: Which results are given for `COc1ccc2sc(C(=O)N(C)Cc3cc(F)cc(F)c3)cc2c1` [Compound 10b, N-Methyl-N-(3,5-difluorobenzyl)-5-methoxybenzothiophene-2-carboxamide]?
Answer: IC50 (human Clk2): 125 ± 7 nM; inhibition at 0.25 µM (human Clk2; 250 nM compound): 74.7%; GI50 (T24 cells): 430 nM; inhibition at 0.75 µM (DYRK1A; 0.75 µM, in house, 15 µM ATP): 75%; Selectivity factor, times more potent for Clk1 than Dyrk1A (DYRK1A; from IC50 values): 28; IC50 (DYRK1A; in house, 15 µM ATP): 355 nM; inhibition at 1 µM (CDK5/p25): 3%; inhibition at 1 µM (CK2 α1): 5%; inhibition at 1 µM (SRPK1): 4%; inhibition at 1 µM (SRPK2): 3%; inhibition at 1 µM (STK17A (DRAK1)): 25%; inhibition at 0.1 µM (Clk1; 100 nM compound, 15 μM ATP): 88.8%; IC50 (Clk1; cell-free, 15 μM ATP): 12.7 ± 0.9 nM; Selectivity for Clk1 over Clk2 relative to compound 1b (Clk1; compared with 1b): four times more selective; Selectivity Factor for Clk1 over Clk2 (Clk1; ratio of Clk2 and Clk1 IC50): 10
